{
  "source": "patent US7998460B2",
  "about": "“Prevention of deficits in neurogenesis with anti-inflammatory agents” (The Board of Trustees of the Leland Stanford Junior …, priority 2003, dated 2011)",
  "tested_on": "adult hippocampus-derived neural precursor cells",
  "experiment": "In vitro neuronal differentiation (doublecortin) of hippocampal neural progenitor cells, 60 hours",
  "type": "cell-based, rat",
  "conditions": "60 hours differentiation",
  "description": "Neuroinflammation could inhibit neurogenesis by a variety of mechanisms, including stimulation of the HPA axis with subsequent elevation of gluccocorticoids, alterations in the relationships between progenitor cells and cells of the neuro-vasculature, or direct effects of activated microglia on the precursor cells. To determine the extent to which microglial activation might directly affect neural stem/progenitor cells, microglia were stimulated in vitro with LPS. LPS is a potent activator of microglia and up-regulates the elaboration of pro-inflammatory cytokines, including IL-6 and TNF-α. LPS-stimulated or resting microglia were then co-cultured with normal neural stem cells from the hippocampus under conditions that typically stimulate the differentiation of 30 to 40% of the progenitor cells into immature Dcx-expressing neurons (normalized to a value of 1 in FIG. 2A, control). Neurogenesis in the presence of microglia was assessed as the increase or decrease in Dcx-expressing cells relative to control. Co-culture with activated, but not resting, microglia decreased in vitro neurogenesis to approximately half of control levels (FIG. 2A). LPS added directly to precursor cells had no effect on neurogenesis.\nTo determine if this effect was due to soluble factors or due to cell-cell contact, hippocampal precursor cells were differentiated in the presence of media pre-conditioned by resting or activated microglia.\nActivated microglia produce the potent pro-inflammatory cytokines interleukin-1β (IL-1β), tumor necrosis factor-α (TNF-α), interferon-γ (INF-γ) and interleukin-6 (IL-6). Progenitor cells were allowed to differentiate in the presence of each cytokine and the relative expression of Dcx was scored after 60 hours. […] Addition of neutralizing anti-IL-6 antibody to CM from activated microglia was able to fully restore in vitro neurogenesis (FIG. 2A). This implicated IL-6 as a key inhibitor of neurogenesis in microglial CM. […] In contrast to neurogenesis, gliogenesis was unaffected by IL-6 exposure as indicated by the lack of change in the number of cells expressing the astrocyte (glial fibrillary acidic protein, GFAP) or early oligodendrocyte (NG2) markers relative to control cultures (FIG. 2E). The hippocampal precursors used in this study do express the IL-6 receptor, as confirmed by RT-PCR (FIG. 5).\nProgenitor Cell Culture Adult hippocampus-derived neural precursor cells were isolated from adult rat hippocampus and cultured as previously described. Briefly, adult female Fisher-344 rats were deeply anesthetized with sodium pentobarbital and were dissected immediately. Hippocampi were enzymatically dissociated with papain (2.5 U/ml; Worthington, Freehold, N.J.)-dispase II (1 U/ml; Boehringer Mannheim, Indianapolis, Ind.)-DNase I (250 U/ml, Worthington) solution. Digested tissue was then washed with DMEM-10% fetal calf serum (FCS) and subsequently mixed with PBS-equilibrated Percoll solution to a final concentration of 35% Percoll. The Percoll solution was made by mixing nine parts of Percoll (Amersham Pharmacia Biotech, Uppsala, Sweden) with one part of 10× PBS. The cell suspension was then fractionated by centrifugation for 10 min at 1000×gravity. Floating myelin and tissue debris were discarded and the cell pellet re-suspended in 65% Percoll solution and fractionated again by centrifugation for 10 min at 1000×g. The floating neural precursors were collected, washed free of Percoll, and plated onto poly-L-ornithine/laminin-coated dishes in DMEM/F12 (1:1) containing 10% FCS medium for 24 hrs; then medium was replaced with serum-free growth medium consisting of DMEM/F12 (1:1) supplemented with N2 supplement (Life Technologies, Gaithersburg, Md.) and 20 ng/ml of human recombinant FGF-2 (Peprotech, Rocky Hill, N.J.). Cell lines were labeled via infection with replication deficient GFP-expressing recombinant retrovirus LZRS-CAMut4GFP. […]",
  "data": [
    {"substance": "lipopolysaccharide [LPS]", "values": [
      {"measurement": "effect on in vitro neurogenesis (Dcx-expressing cells relative to control)", "value": "no effect"}
    ]}
  ]
}
